The source of these data is patent US9108930B2, “N1- and N2-carbamoyl-1,2,3-triazole serine hydrolase inhibitors and methods” (The Scripps Research Institute, priority 2011, dated 2015).

For assay [1], the target named is T1, DAGLB (Mus musculus, UniProt Q91WC9).
T1 sequence (Q91WC9 1-669): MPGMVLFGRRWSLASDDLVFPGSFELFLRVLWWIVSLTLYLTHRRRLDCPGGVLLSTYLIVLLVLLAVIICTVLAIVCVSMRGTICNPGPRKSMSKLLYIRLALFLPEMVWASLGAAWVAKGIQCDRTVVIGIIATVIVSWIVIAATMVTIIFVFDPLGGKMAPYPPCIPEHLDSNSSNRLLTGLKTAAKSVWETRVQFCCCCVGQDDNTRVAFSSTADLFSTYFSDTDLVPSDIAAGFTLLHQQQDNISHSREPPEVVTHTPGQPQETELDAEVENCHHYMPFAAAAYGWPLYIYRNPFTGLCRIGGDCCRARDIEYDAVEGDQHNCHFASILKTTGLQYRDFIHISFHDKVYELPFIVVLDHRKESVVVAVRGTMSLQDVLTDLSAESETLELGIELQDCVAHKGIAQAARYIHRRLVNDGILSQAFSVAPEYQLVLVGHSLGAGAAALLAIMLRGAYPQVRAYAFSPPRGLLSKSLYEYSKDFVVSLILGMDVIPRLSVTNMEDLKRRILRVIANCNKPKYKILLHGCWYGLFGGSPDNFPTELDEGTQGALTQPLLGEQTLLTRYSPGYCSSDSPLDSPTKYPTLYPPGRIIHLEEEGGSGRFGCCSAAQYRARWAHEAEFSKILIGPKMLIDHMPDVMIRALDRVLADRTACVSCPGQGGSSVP
In words: Gel-based ABPP assay against recombinant DAGLB (HEK293T-DAGLB lysates). In kind it is biochemical. The conditions noted are these: recombinant. Also on record: Full-length cDNAs encoding serine hydrolases were purchased from Open Biosystems; V5; host or cells: HEK293T.

Assay [2] concerns peritoneal macrophages of Pla2g4a-/- mice. The assay can be described thus: LPS-stimulated TNF-alpha release, macrophages from treated Pla2g4a-/- mice. In kind it is in vivo, mouse. The conditions noted are these: 5 mg/kg, 4 hours, i.p. The protocol: Next, the cytokine profiles from a Pla2g4a^+/+ background were compared with the profiles from Pla2g4a^−/− mice treated with KT109 or KT195 (5 mg/kg, 4 hours, i.p.). […] However, no significant differences in LPS-stimulated TNF-alpha levels were observed from Pla2g4a^+/+ versus […].

Assay [3] addresses T1, DAGLB. In words: ABPP-MudPIT of peritoneal macrophages from treated mice. The conditions noted are these: in vivo.
Assay [4] deals with T2, acetylcholinesterase (ACHE) (Mus musculus, UniProt P21836).
T2 construct: full-length cDNAs encoding mouse serine hydrolases were either transfected directly; host or cells: COS-7 cells
The assay can be described thus: Competitive ABPP of ACHE recombinantly expressed in COS-7 cells. It counts as biochemical. To be noted: 30 minutes at 37° C. Here is the method:
ACHE was recombinantly expressed in COS-7 cells. Whole cell proteome was mixed 1:1 with soluble mouse brain proteome and treated with DMSO or AA74-1 in vitro at indicated concentrations for 30 minutes at 37° C., after which the samples were analyzed by competitive ABPP. Note that ACHE migrates as multiple bands by SDS-PAGE due to heterogeneous glycosylation. ACHE inhibition in vivo was not observed, as reflected by the equal signals for this enzyme in competitive ABPP results shown in FIG. 5b.
Briefly, full-length cDNAs encoding mouse serine hydrolases were either transfected directly (if available in a eukaryotic expression vector) or subcloned into pcDNA3 (Invitrogen). COS-7 or HEK-293 cells were grown to about 70% confluence in 10 cm dishes in complete medium (DMEM with L-glutamine, nonessential amino acids, sodium pyruvate, and FCS) at 37° C. and 5% CO2. The cells were transiently transfected by using the appropriate cDNA or empty vector control (“mock”) and the FUGENE® 6 (Roche Applied Science) transfection reagents following the manufacturers' protocols. After 48 hrs, the cells were washed twice with phosphate-buffered saline (PBS), and collected by scraping.

Assay [5] concerns N-terminally modified proteins (APEH substrates) in mouse T-cells. In words: SILAC-based N-terminal labeling and enrichment in mouse T-cells.
Assay [6] addresses T3, ABHD6 (Mus musculus, UniProt Q8R2Y0).
T3 sequence (Q8R2Y0 1-336): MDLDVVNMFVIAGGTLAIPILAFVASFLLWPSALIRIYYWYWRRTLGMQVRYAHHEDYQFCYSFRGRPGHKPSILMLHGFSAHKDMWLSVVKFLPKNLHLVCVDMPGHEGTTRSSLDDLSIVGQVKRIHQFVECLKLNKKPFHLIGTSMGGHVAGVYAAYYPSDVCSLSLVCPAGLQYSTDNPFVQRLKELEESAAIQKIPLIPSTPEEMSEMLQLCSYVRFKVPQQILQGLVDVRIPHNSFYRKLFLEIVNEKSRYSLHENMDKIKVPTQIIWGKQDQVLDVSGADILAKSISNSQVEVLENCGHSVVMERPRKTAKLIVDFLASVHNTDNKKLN
The assay can be described thus: In situ inhibition in Neuro2A cells, competitive ABPP. To be noted: 4 hours, same dose as used for DAGLB by KT109 and KT172. It counts as cell-based. The protocol: For gel-based competitive ABPP studies, proteomes from cells treated in situ with inhibitor for 4 h at 37° C. at the indicated concentrations (n=3) were labeled with HT-01 (1 μM) for 30 min at 37° C. After quenching, SDS-PAGE, and in-gel visualization, the percentage of enzyme activity remaining was determined by measuring the integrated optical intensity of the bands using IMAGER® software. For LC-MS substrate assays, the percentage of enzyme activity remaining was determined by comparing the specific activity (amount of 2-AG formed per min per mg of proteome) of inhibitor with DMSO-treated samples. The IC50 values were determined from a dose-response curve generated using GraphPad PRISM® software.

Assay [7] concerns the target T3, ABHD6. In words: ABPP-MudPIT of peritoneal macrophages from treated mice. Also on record: from tissue; host or cells: thioglycolate-elicited peritoneal macrophages of mice. The conditions noted are these: in vivo.

T2 sequence (P21836 32-614): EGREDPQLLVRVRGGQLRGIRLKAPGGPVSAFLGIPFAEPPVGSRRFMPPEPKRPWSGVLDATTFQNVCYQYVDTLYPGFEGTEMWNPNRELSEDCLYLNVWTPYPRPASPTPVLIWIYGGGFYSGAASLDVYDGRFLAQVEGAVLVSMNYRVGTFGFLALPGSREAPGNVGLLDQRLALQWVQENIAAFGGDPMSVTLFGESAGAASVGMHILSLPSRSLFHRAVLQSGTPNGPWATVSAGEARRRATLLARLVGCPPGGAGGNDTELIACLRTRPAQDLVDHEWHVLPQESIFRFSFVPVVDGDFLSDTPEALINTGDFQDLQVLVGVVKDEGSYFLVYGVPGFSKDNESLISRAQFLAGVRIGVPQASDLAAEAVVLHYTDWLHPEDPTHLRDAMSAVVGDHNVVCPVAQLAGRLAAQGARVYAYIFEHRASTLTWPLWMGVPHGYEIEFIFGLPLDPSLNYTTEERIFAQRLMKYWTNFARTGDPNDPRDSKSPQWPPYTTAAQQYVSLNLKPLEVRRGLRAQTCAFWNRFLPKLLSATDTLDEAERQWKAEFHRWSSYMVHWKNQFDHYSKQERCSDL

`O=C(N1CCCCC1Cc1ccccc1)n1cc(-c2ccc(-c3ccccc3)cc2)nn1` (centres unmarked) [KT109]: the “activity against DAGLB” value at DAGLB [1] is on record as “maintaining comparable potencies against DAGLB”. The “increase of TNF-alpha levels upon LPS stimulation” value in assay [2] is reported as 2 fold. Further, the “DAGLB inhibition by spectral counting” value at DAGLB [3] is on record as “confirmed inhibition of DAGLB”.

Turning to `CC(C)CC(O)(CC(C)C)c1cnn(C(=O)N2CCCC2)n1` [AA74-1], in assay [4], the “ACHE inhibition in transfected cell proteome” value is reported as “not inhibited”. The “changes in N-terminal labeling signals of five N-terminally acetylated proteins” value in assay [5] (1 nM) is 2.5 to 4.6 fold. Further, in assay [5] (1 nM versus DMSO), the “number of proteins with consistent two-fold or greater reductions in N-terminal labeling signals” value is 25 proteins.

Regarding `COc1ccc(-c2ccc(-c3cn(C(=O)N4CCCCC4c4ccccc4)nn3)cc2)cc1` (centres unmarked) [KT195], on ABHD6 [6], the “inactivation of ABHD6 in Neuro2A cells” value is recorded as “completely inactivating ABHD6”. The “activity against DAGLB” value on DAGLB [1] was “negligible activity against DAGLB at micromolar concentrations”. Further, on ABHD6 [7], the “ABHD6 inhibition by spectral counting” value is on record as “complete inhibition of ABHD6”. For the same compound, the “effect on TNF-alpha levels upon LPS stimulation” value in assay [2] is “no observable effects”. Moreover, the “DAGLB inhibition by spectral counting” value at DAGLB [3] was “no activity against DAGLB”.
